From patent US7575857B2, “Screening method for identifying protective substances for treating neurodegenerative and/or ischemic disorders” (SYGNIS Bioscience GmbH & Co. KG, priority 2002, dated 2009)
Several values for one entry are separate records, joined by “and”; a condition that tells them apart may be missing. Identical values can stand only once.

Legend:
beta globin = beta globin induction in the animals of the neuroglobin experiment; type: in vivo; conditions: same animals as neuroglobin test, 5000 units/kg i.p.
From the text: (§1) However, it has important biochemical characteristics which fundamentally distinguish it from the globins, e.g. a far higher oxygen affinity (Dewilde et al. (2001), Journal of Biological Chemistry, 276, 38949-55). Neuroglobin is neuroprotective, although the mechanism here is not known (Sun et al. (2001), Proc. Natl. Acad. Sci. USA, 98, 15306-11, Venis (2001), Lancet, 358, 2055, Sun et al. (2003), Proc. Natl. Acad. Sci. USA, 5, 5). To determine whether neuroglobin possibly also plays a role in erythropoetin-conveyed neuroprotection, the relative content of neuroglobin mRNA after EPO administration was determined using relative quantitative PCR in comparison with cyclophilin. 5000 units of EPO/kg body weight were applied i.p. and the animals were killed after transcardial perfusion. RNA and cDNA were obtained using standard methods. From serial dilutions of the cDNA (3 times serial dilutions), the levels of cyclophilin and neuroglobin were determined and the ratio of neuroglobin/cyclophilin in the sham-treated animals set at 1. The standard deviations in the following values relate to measurements at different dilutions (n=4) and represent the measurement accuracy. The primers used were: ng1_m_LC—1s: […] (SEQ ID NO: 14), ng1_m_LC—1as: […] (SEQ ID NO: 15) for neuroglobin. […]

alpha globin = alpha globin induction in the animals of the neuroglobin experiment; type: in vivo; conditions: same animals as neuroglobin test, 5000 units/kg i.p.
From the text: as §1

[1] = system: δ-aminolaevulinic acid synthase (ALAS) mRNA; assay: Quantitative PCR for ALAS mRNA in brain of EPO-injected animals; type: in vivo
From the text: The primer sequences used and PCR conditions were, for ALAS:
(annealing temperature: 60 C.; measurement temperature: 83 C.; 45 cycles), and for DALDH: Daldh_m—1 s: […] (SEQ ID NO:12), daldh_m—1 as: […] (SEQ ID NO: 13) (annealing temperature: 60 C.; measurement temperature: 85 C.; 45 cycles).
Through the daily administration of this dosage of EPO for 7 days, induction factors of up to 130 times were achieved: sham: 1±0.64; EPO-injected animal 1 (Epo—1)=11.67±5.46; EPO-injected animal 2 (Epo—2)=118.93±31.02; EPO-injected animal 3 (Epo—3)=44.88±15.15; EPO-injected animal 4 (Epo—4)=129.47±8.77 (FIG. 18).

haemoglobin = assay: Haemoglobin concentration in brain homogenate (rapid cyanhaemiglobin method) after one-off i.p. erythropoetin injection; type: in vivo, mice; conditions: 5000 units/kg i.p., 24 hours after injection, perfused brain, n=3
Procedure: In continuation of Example 3, the haemoglobin concentration was also determined in the brain of mice to whom intraperitoneal erythropoetin (Erypo made by the company Janssen) had been administered (5000 units/kg body weight). After injection of EPO, the mice were terminally anaesthetised after 24 hours by injection with Rompun/Ketanest, and the blood was rinsed out of the vascular system of the brain by transcardial perfusion with 40 ml Hanks balanced salt solution (HBSS). […] The protein content of the samples was determined according to the Bradford method (Bradford, 1976, Anal. Biochem. 72, 248-254). The haemoglobin concentration was measured with the rapid cyanhaemiglobin method (van Kampen and Zijlstra, 1961, Clin. Chim. Acta 6, 538-544). […] The extinction at 546 nm was then measured and multiplied by 36.7 to obtain the concentration in g/dl. These values were then related to the protein concentration/volume brain tissue, giving the following values (including the measured transgenic animals from Example 3): control animals: 32.54±17.51 μg/mg brain protein (n=10); EPO-transgenic animals (line tg6): 79.00±32.12 (n=13); EPO-injected animals (24 hours after injection): 77.14±13.51 μg/mg brain protein (n=3). […]

neuroglobin mRNA = assay: Quantitative PCR for neuroglobin mRNA after erythropoetin injection; type: in vivo; conditions: 5000 units/kg i.p., single injection
From the text: as §1

[2] = 5000 units/kg i.p. daily for 7 days

With Erythropoietin [EPO] as the substance, how does the beta globin induction (beta globin) read?
The beta globin induction was “approx. 10 times”.

What about the alpha globin induction (alpha globin) of the same substance?
Its alpha globin induction is “approx. 14 times”.

What about the ALAS induction factors [1, 2] of the same substance?
The ALAS induction factors was “up to 130 times”.

And the “ALAS mRNA level (sham = 1), individual animals” value [1, 2]?
The value was 11.67±5.46 and 118.93±31.02 and 44.88±15.15 and 129.47±8.77.

And the “ALAS mRNA level (sham = 1), individual animals” value ([1]; one-off dose 5000 units/kg i.p., 24 h)?
Its value is 10.07±0.00 and 8.76±0.18 and 14.69±0.27.

What about the ALAS induction ([1]; same animals as neuroglobin test, 5000 units/kg i.p.) of the same substance?
Its ALAS induction is “approx. 10 times”.

And the “haemoglobin concentration related to brain protein” value (haemoglobin)?
The value was 77.14±13.51 μg/mg brain protein.

And the “ratio neuroglobin/cyclophilin mRNA (sham-treated set at 1), individual animals” value (neuroglobin mRNA)?
The value was “no induction and 1.01±0.15 and 0.99±0.15 and 1.04±0.13”.
